# Paper PMC6548501, “Sterol transfer by atypical cholesterol-binding NPC2 proteins in coral-algal symbiosis” (eLife, 2019)
# Biological target: T1, Aiptasia non-canonical NPC2 XM_021052404 (Exaiptasia diaphana, UniProt A0A913XQG8)
# T1 construct: expressed in HEK 293T, NPC2 - five-proline linker - crmCherry - 3xHA (C-terminal), lysate, anti-HA pull-down; native protein also precipitated from Aiptasia CC7
# T1 sequence (A0A913XQG8 60-190): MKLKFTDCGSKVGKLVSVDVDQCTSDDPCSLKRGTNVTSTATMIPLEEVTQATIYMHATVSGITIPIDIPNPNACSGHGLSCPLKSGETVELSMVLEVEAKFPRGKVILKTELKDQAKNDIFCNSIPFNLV
# Experiment: immunoprecipitation-lipidomics (mass spectrometry of co-eluted sterols)
# Type: binding
# Details: HEK 293T lysate mixed with Symbiodiniaceae SSB01 homogenate (sterol mixture), pH 7 or pH 5
structure (smiles),measurement,value
CC(C)CCC[C@@H](C)[C@H]1CC[C@H]2[C@@H]3CC=C4C[C@@H](O)CC[C@]4(C)[C@H]3CC[C@]12C [cholesterol],immunoprecipitation-lipidomics (mass spectrometry of co-eluted sterols),directly bound to cholesterol and various sterols the way other NPC2 proteins normally do
